Values belong to the compound of their own block, whether it stands above or below them.
Experiments:
[1] = molecular target: Hepatocyte growth factor receptor (Homo sapiens) (UniProt P08581); assay: Inhibition of MET (unknown origin) at 0.078 uM relative to control
[2] = molecular target: Tyrosine-protein kinase BTK (Homo sapiens) (UniProt Q06187); assay: Inhibition of BTK (unknown origin) at 0.49 uM relative to control
[3] = molecular target: NUAK family SNF1-like kinase 1 (Homo sapiens) (UniProt O60285); assay: Inhibition of NuaK1 (unknown origin) at 0.49 uM relative to control
[4] = molecular target: Aurora kinase C (Homo sapiens) (UniProt Q9UQB9); assay: Inhibition of AurC (unknown origin) at 0.49 uM relative to control
[5] = molecular target: SRSF protein kinase 3 (Homo sapiens) (UniProt Q9UPE1); assay: Inhibition of MSSK1 (unknown origin) at 0.49 uM relative to control
[6] = molecular target: Tyrosine-protein kinase SYK (Homo sapiens) (UniProt P43405); assay: Inhibition of SYK (unknown origin) at 0.49 uM relative to control
[7] = molecular target: T1, cGMP-dependent protein kinase 1 (Homo sapiens) (UniProt Q13976); assay: Inhibition of PKG1-beta (unknown origin) at 0.49 uM relative to control
T1 sequence (whole entry): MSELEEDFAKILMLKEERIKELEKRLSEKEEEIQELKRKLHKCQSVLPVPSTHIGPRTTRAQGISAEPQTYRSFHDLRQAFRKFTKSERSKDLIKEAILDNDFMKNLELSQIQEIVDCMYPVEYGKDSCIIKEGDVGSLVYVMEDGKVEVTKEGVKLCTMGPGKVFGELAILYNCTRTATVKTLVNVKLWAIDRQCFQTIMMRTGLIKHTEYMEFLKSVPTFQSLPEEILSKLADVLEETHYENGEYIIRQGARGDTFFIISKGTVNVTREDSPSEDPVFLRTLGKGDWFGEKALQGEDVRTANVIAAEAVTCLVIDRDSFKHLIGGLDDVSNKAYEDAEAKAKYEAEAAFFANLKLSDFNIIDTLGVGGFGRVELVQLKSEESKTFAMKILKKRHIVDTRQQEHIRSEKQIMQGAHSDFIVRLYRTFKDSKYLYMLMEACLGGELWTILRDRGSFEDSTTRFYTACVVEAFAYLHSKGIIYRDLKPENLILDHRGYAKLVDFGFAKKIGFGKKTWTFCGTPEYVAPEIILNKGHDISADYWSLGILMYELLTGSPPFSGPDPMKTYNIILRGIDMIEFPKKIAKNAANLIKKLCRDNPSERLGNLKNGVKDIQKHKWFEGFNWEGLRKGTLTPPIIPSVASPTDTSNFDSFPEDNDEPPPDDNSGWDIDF

[8] = test system: Tyrosine-protein kinase ABL1 (Homo sapiens), P00519 [E255K]; assay: Inhibition of ABL1 E255K mutant (unknown origin) at 0.49 uM relative to control
[9] = molecular target: Ephrin type-B receptor 2 (Homo sapiens) (UniProt P29323); assay: Inhibition of EPHB2 (unknown origin) at 0.49 uM relative to control
[10] = molecular target: Hepatocyte growth factor receptor (Homo sapiens) (UniProt P08581); assay: Inhibition of MET (unknown origin) at 0.49 uM relative to control
[11] = molecular target: Ephrin type-B receptor 4 (Homo sapiens) (UniProt P54760); assay: Inhibition of EPHB4 (unknown origin) at 0.49 uM relative to control
[12] = molecular target: Cyclin-dependent kinase 3 (Homo sapiens) (UniProt Q00526); assay: Inhibition of CDK3 (unknown origin) at 0.49 uM relative to control
[13] = molecular target: Tyrosine-protein kinase ABL2 (Homo sapiens) (UniProt P42684); assay: Inhibition of Arg (unknown origin) at 0.49 uM relative to control
[14] = molecular target: RAC-gamma serine/threonine-protein kinase (Homo sapiens) (UniProt Q9Y243); assay: Inhibition of AKT3 (unknown origin) at 0.49 uM relative to control
[15] = molecular target: Insulin-like growth factor 1 receptor (Homo sapiens) (UniProt P08069); assay: Inhibition of IGF1R (unknown origin) at 0.49 uM relative to control
[16] = molecular target: MAP/microtubule affinity-regulating kinase 3 (Homo sapiens) (UniProt P27448); assay: Inhibition of c-TAK1 (unknown origin) at 0.49 uM relative to control
[17] = molecular target: Ephrin type-A receptor 1 (Homo sapiens) (UniProt P21709); assay: Inhibition of EPHA1 (unknown origin) at 0.49 uM relative to control
[18] = molecular target: Serine/threonine-protein kinase MARK2 (Homo sapiens) (UniProt Q7KZI7); assay: Inhibition of MARK2 (unknown origin) at 0.49 uM relative to control
[19] = test system: Proto-oncogene tyrosine-protein kinase receptor Ret (Homo sapiens), P07949 [V804L]; assay: Inhibition of Ret V804L mutant (unknown origin) at 0.45 uM relative to control
[20] = molecular target: Serine/threonine-protein kinase Nek9 (Homo sapiens) (UniProt Q8TD19); assay: Inhibition of NEK9 (unknown origin) at 0.45 uM relative to control
[21] = molecular target: Serine/threonine-protein kinase PAK 3 (Homo sapiens) (UniProt O75914); assay: Inhibition of PAK3 (unknown origin) at 0.45 uM relative to control
[22] = molecular target: Vascular endothelial growth factor receptor 1 (Homo sapiens) (UniProt P17948); assay: Inhibition of FLT1 (unknown origin) at 0.45 uM relative to control
[23] = molecular target: Proto-oncogene tyrosine-protein kinase ROS (Homo sapiens) (UniProt P08922); assay: Inhibition of ROS (unknown origin) at 0.45 uM relative to control
[24] = molecular target: Serine/threonine-protein kinase MARK1 (Homo sapiens) (UniProt Q9P0L2); assay: Inhibition of MARK1 (unknown origin) at 0.45 uM relative to control
[25] = molecular target: Maternal embryonic leucine zipper kinase (Homo sapiens) (UniProt Q14680); assay: Inhibition of MELK (unknown origin) at 0.45 uM relative to control
[26] = molecular target: Tyrosine-protein kinase receptor TYRO3 (Homo sapiens) (UniProt Q06418); assay: Inhibition of TYRO3 (unknown origin) at 0.45 uM relative to control
[27] = molecular target: Testis-specific serine/threonine-protein kinase 2 (Homo sapiens) (UniProt Q96PF2); assay: Inhibition of TSSK2 (unknown origin) at 0.45 uM relative to control
[28] = molecular target: Protein kinase C iota type (Homo sapiens) (UniProt P41743); assay: Inhibition of PKC-iota (unknown origin) at 0.45 uM relative to control
[29] = molecular target: Homeodomain-interacting protein kinase 4 (Homo sapiens) (UniProt Q8NE63); assay: Inhibition of HIPK4 (unknown origin) at 0.45 uM relative to control
[30] = molecular target: Dual specificity tyrosine-phosphorylation-regulated kinase 4 (Homo sapiens) (UniProt Q9NR20); assay: Inhibition of DYRK4 (unknown origin) at 0.45 uM relative to control
[31] = molecular target: Tyrosine-protein kinase Lyn (Homo sapiens) (UniProt P07948); assay: Inhibition of LYNB (unknown origin) at 0.45 uM relative to control

Chain of Hepatocyte growth factor receptor (Homo sapiens) (P08581 whole entry): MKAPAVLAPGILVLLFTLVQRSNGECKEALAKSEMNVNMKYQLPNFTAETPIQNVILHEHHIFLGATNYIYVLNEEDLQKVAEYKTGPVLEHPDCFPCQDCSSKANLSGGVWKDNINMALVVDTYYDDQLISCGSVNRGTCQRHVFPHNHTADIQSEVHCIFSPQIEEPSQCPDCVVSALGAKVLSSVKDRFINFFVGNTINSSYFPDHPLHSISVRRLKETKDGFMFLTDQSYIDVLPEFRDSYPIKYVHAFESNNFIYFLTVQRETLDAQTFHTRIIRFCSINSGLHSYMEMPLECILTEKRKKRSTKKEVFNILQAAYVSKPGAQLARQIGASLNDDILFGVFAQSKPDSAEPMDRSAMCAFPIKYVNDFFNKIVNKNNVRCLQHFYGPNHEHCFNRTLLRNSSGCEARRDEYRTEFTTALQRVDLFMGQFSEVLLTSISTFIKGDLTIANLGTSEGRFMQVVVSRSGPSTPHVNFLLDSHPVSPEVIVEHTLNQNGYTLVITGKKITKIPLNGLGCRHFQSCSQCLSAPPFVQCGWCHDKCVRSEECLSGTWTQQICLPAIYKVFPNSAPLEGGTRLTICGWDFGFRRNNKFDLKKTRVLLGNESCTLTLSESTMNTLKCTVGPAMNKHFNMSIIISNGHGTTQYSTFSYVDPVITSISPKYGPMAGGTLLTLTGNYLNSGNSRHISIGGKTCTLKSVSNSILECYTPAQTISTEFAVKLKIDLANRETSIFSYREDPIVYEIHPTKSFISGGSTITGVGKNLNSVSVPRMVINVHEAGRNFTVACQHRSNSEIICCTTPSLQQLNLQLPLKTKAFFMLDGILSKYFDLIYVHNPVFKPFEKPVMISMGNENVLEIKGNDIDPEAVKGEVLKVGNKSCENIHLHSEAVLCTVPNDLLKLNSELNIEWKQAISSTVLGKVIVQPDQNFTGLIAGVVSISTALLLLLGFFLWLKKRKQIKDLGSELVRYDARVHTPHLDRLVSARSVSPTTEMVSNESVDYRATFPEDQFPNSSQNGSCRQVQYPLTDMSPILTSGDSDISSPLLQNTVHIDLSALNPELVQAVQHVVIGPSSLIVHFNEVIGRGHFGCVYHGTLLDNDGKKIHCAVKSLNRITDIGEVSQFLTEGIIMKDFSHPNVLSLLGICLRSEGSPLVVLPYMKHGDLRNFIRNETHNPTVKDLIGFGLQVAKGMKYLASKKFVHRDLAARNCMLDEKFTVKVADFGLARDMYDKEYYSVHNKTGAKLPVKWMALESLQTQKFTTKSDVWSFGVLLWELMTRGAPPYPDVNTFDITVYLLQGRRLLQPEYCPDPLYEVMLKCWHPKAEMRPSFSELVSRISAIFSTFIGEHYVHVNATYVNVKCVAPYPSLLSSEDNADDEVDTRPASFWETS
Chain of Tyrosine-protein kinase BTK (Homo sapiens) (Q06187 whole entry): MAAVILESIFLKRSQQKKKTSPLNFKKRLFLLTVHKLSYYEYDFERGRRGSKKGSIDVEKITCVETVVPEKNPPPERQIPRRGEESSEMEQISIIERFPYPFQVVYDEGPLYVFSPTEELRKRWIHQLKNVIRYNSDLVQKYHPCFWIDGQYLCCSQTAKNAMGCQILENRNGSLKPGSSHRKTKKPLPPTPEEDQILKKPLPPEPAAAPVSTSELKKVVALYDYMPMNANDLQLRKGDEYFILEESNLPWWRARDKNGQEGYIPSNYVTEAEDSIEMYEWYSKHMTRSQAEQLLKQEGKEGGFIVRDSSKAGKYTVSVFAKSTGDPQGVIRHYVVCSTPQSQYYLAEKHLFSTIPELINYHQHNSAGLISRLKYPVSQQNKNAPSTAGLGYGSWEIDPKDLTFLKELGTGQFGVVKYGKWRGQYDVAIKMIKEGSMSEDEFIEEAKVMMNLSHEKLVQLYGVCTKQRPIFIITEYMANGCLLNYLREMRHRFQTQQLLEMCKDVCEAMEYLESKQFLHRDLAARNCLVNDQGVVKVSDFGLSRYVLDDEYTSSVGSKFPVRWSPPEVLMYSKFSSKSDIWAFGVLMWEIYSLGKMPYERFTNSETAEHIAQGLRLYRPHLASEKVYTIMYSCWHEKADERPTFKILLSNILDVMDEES
Chain of RAC-gamma serine/threonine-protein kinase (Homo sapiens) (Q9Y243 whole entry): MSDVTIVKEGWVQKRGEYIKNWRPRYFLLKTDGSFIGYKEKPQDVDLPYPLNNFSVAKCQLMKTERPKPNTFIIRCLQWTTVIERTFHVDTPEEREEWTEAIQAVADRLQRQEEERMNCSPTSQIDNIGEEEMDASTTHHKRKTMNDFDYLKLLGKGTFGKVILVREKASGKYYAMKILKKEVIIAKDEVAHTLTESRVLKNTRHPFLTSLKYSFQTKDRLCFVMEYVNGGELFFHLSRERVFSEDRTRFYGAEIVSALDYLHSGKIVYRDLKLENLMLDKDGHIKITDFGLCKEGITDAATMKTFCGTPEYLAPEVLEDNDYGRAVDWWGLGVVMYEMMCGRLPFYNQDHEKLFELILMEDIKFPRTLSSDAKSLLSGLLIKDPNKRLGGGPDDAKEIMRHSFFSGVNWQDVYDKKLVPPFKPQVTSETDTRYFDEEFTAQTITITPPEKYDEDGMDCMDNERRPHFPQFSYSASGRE
Chain of Insulin-like growth factor 1 receptor (Homo sapiens) (P08069 31-736 limits assumed): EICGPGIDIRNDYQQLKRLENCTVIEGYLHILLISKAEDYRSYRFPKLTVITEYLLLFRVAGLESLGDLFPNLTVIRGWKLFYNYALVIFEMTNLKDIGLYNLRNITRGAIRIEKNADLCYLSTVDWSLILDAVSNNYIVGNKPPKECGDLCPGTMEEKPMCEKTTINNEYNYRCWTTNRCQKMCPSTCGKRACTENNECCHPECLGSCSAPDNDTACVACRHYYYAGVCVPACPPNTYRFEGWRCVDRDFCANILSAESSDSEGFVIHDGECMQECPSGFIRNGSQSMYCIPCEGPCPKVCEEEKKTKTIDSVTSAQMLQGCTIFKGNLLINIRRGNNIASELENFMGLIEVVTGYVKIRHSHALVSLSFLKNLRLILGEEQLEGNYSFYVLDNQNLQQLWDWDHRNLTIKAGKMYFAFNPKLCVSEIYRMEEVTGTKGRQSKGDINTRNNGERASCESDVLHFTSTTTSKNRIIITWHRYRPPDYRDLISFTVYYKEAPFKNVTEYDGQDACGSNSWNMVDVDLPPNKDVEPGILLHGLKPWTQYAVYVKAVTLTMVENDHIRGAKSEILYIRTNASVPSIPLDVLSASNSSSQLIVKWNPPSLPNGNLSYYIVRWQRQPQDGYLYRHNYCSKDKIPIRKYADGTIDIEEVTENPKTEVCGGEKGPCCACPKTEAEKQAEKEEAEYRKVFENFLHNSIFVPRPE
Chain of Insulin-like growth factor 1 receptor (Homo sapiens) (P08069 741-1367 limits assumed): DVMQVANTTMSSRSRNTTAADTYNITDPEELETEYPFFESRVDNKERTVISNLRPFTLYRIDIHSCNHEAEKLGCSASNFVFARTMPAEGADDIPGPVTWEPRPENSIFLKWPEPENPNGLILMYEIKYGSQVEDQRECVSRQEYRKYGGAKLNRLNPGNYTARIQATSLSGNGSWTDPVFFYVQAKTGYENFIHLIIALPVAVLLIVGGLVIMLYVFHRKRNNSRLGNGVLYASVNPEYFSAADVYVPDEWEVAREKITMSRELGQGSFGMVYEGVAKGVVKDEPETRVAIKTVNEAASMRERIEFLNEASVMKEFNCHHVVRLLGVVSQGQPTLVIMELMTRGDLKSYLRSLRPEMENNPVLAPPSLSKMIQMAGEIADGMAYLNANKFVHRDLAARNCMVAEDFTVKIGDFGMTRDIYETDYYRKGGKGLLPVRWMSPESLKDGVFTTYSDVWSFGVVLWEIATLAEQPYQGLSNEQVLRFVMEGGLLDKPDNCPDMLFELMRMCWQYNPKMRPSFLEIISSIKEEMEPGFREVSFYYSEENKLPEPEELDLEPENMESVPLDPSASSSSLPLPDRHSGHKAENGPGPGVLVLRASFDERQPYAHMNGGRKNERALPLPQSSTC
Chain of Testis-specific serine/threonine-protein kinase 2 (Homo sapiens) (Q96PF2 whole entry): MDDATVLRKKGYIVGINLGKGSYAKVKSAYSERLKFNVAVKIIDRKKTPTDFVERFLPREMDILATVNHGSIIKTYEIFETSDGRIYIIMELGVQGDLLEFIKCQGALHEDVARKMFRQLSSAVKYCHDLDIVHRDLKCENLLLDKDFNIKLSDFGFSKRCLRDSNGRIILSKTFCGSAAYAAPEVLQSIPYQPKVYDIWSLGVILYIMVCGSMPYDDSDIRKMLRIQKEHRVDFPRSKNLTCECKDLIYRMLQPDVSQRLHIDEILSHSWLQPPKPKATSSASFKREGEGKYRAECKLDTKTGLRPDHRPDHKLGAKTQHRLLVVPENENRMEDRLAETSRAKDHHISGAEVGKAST
Chain of Maternal embryonic leucine zipper kinase (Homo sapiens) (Q14680 whole entry, looked up): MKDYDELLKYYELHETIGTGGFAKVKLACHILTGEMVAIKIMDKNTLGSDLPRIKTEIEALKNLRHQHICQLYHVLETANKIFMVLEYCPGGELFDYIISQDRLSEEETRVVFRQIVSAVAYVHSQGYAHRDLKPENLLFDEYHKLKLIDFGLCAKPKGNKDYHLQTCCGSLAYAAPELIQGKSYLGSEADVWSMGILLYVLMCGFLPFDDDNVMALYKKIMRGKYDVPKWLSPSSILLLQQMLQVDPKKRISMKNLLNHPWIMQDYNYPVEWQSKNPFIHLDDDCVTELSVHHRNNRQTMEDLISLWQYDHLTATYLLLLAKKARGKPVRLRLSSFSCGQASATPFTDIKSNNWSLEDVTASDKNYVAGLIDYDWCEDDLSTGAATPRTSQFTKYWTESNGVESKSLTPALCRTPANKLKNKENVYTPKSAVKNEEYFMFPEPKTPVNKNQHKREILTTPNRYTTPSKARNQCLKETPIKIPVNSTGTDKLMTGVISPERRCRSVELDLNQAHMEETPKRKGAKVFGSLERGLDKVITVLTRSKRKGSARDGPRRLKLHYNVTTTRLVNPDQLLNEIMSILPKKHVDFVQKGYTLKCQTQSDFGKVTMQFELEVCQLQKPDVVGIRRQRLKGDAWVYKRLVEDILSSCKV

inhibition [1]: 1%
Compound: COC(=O)Nc1noc2cc(-c3c(-c4ccccn4)n[nH]c3C)ccc12

inhibition [2]: 0.3%
inhibition [3]: 5.7%
inhibition [4]: -3.3%
inhibition [5]: 4%
inhibition [6]: 0.7%
inhibition [7]: 2%
inhibition [8]: 21.3%
inhibition [9]: 5.3%
inhibition [10]: 7.3%
inhibition [11]: 1.7%
inhibition [12]: 3.3%
inhibition [13]: 7.7%
inhibition [14]: 7.3%
inhibition [15]: 1.3%
inhibition [16]: 6%
inhibition [17]: 3.3%
inhibition [18]: -1%
Compound: Cc1[nH]nc(C2CC2)c1-c1ccc2c(NC(=O)C3CC3)noc2c1

inhibition [19]: 21.3%
inhibition [21]: 3.7%
inhibition [22]: 12.7%
inhibition [23]: 1.3%
inhibition [24]: 36.7%
inhibition [25]: 38%
inhibition [26]: 13.3%
inhibition [27]: -3%
inhibition [28]: -6.7%
inhibition [29]: 1.3%
inhibition [30]: 2.7%
inhibition [31]: 24.3%
Compound: Cc1n[nH]c(C)c1-c1ccc2c(NC(=O)c3ccc(N4CCN(C)CC4)cc3)n[nH]c2c1
inhibition [20]: 1.7%
